Measurements: US20220196635A1, “Fibrosis Assay” (Georgia Tech Research Corporation, priority 2020, published 2022)

Tests used:
[1] = test system: human primary lung fibroblasts (NHLF, IPF) in fibrin micro-scaffolds; test: Contracting scar-in-a-drop fibroplasia assay (final projected area of cell-ECM spheroids); format: cell-based
Description: Human primary lung fibroblasts were used in all experiments presented in this paper. Unless otherwise noted, experiments utilized normal human lung fibroblasts (NHLF B lot #0000580583; Lonza) from a person with a history of smoking. For experiments evaluating donor variability, the following cells were utilized: NHLF A (NHLF lot #0000608197; Lonza) from a person, IPF A (IPF lot #0000627840; Lonza) from a person, and IPF B (IPF lot #6F5002; Lonza) from a person. All cells were cultured in fibroblast growth media (FGM; Lonza). Cells were passaged at 80-90% confluence and were sub-cultured in 1:3 ratios by trypsinization. When at the desired confluence, cells were washed with PBS and 0.05% trypsin solution was added to the flask. Cells were incubated for 2 min, and then harvested and centrifuged ([…], 5 min) in a conical tube. The supernatant was aspirated and the cell pellet was re-suspended in FBS-free culture media. When used in fibrin degradation experiments, cells were re-suspended at 2× the final desired concentration (2500 cells/ul unless otherwise indicated). To promote collagen production and contraction in addition to fibrin degradation, serum (bovine or human) were added at 2% or higher up to about 10%. Higher cell densities (about 2500 cells/ul and higher up to about 10,000 cells/ul) also promote collagen production. All experiments were conducted with cells at or below passage 8 except for high passage experiments conducted at passage 12. In all experiments, media was changed every 48 hours and any media additives (plasminogen, TGF-β1, drugs, etc.,) were included.
ATPS printing of fibrin micro-scaffolds has previously described above. Briefly, working solutions of PEG with 0.1 U/mL of thrombin were warmed to 37° C. and pipetted into a 96-well plate. For production of droplets, fibrinogen-DEX solutions with cell suspension were maintained at 37° C. and 4 μl per assay (unless otherwise noted) was pipetted directly into the PEG-thrombin media using a semi-automated repeater pipette (Repeater E3X; Eppendorf). Following dispensing of the DEX phase, the plates were placed in an ambient air incubator at 37° C. for 30 min to allow the thrombin to enzymatically crosslink the fibrinogen into a fibrin matrix (FIG. 6A). The PEG-enriched media was removed using a 12-channel micropipette and replaced with 100 μl of fully supplemented media in each well. When applicable, this media addition was supplemented with stimuli as detailed in example 17 below. For the duration of each experiment, assay plates were imaged every 2 hours at 4× with an automated cell culture monitoring system (Incucyte S3; Sartorius). As the assay proceeded, the fibroblasts progressively remodeled the fibrin scaffold as illustrated in FIG. 6C.
After each experiment, the final projected areas of the cell-ECM spheroids were determined from brightfield images taken at the final time point using a benchtop imaging system (2× objective; EVOS M7000; ThermoFisher). These images were then segmented through a process of pixel classification, thresholding, and morphological filtering in order to isolate the cell-ECM construct area from the background.
Pixel classification implemented Ilastic, a freely available image classification tool developed by the European Molecular Biology Laboratory. Ilastik's pixel classification utility implements a random forest classifier for quick and robust segmentation. In order to train the classifier, 10 characteristic images were selected to include different stages of ECM remodeling. In this step, each individual pixel is assigned a probability for belonging to layers for the background or the cell-ECM construct. Ilastik enables interactive training of the random forest classifier via user annotations of the training images. […]

[2] = test system: normal human lung fibroblasts (NHLF); test: Picrosirius red histology of contracted cell-ECM spheroids (mean fluorescence intensity); format: cell-based; conditions: different TGF-β1 conditions and control, 12 days of culture
Description: Contracted cell-ECM spheroids were harvested after 9-12 days of culture. These structures were prepared for histology, stained, and imaged as previously described for cultured spheroids. Briefly, the spheroids were washed with PBS and fixed in 4% paraformaldehyde (Alfa Aesar) for 1 hour at room temperature. The structures were stained with 0.5% methylene blue solution in PBS for 10 minutes at room temperature to aid in visualization during histology. Samples were placed in a cryomold containing optimal cutting temperature (OCT) compound, and flash frozen in cooled isopentane. 10 um sections were obtained using a CryoStar NX70 cryostat (Thermo Fisher Scientific).
Upon warming to room temperature, the sections were washed with PBS, permeabilized with 0.2% Triton-X 100, and blocked for 1 hour at room temperature with 4% bovine serum albumin (BSA) (Millipore Sigma). Sections were stained for 30 min at room temperature with Sirius red (0.1% of Sirius red in saturated aqueous picric acid), as previously described for collagen bundle staining. The samples were then washed with PBS, stained with DAPI for 15 minutes at room temperature, and coverslipped. […] Fluorescence was detected using Texas Red channel settings as previously described. Mean fluorescence intensity was quantified in ImageJ as the average pixel intensity within the sections.

TGF-β1: Human Recombinant TGF-β1 (Peprotech), pro-fibrotic, anti-fibrinolytic stimulus
projected area of the final contracted cell-ECM spheroid ([1]; TGF-β1 0, 0.5, 2 ng/mL, NHLF): significant dose-dependent increase
contraction of cell-ECM construct ([1]; TGF-β1 10 ng/mL (highest concentration)): did not contract within the duration of the experiment
50% contraction time ([1]; TGF-β1 stimulation, kernel density estimates (FIG. 12A)): increases in both 50% contraction time and final assay area
mean fluorescence intensity (MFI) of picrosirius red stained sections, collagen organization [2]: relative consistency in organization of collagen networks
